The text below walks through data of patent publication US8415351B2 (priority 2007, dated 2013).

Test [1] has as its system genotype 1b-Con1 subgenomic replicon cell line. Description: microbe, parasite or virus in culture. The class given is cell-based, HCV. The conditions noted are these: Hepatitis C virus, read-out: EC50 1b.
Test [2] deals with T1, HCV polymerase 1A (Δ21 NS5B, H77) (Hepatitis C virus genotype 1a, UniProt P27958).
T1 construct: 20 to 50 nM Δ21 NS5B
Description: biochemical. To be noted: IC50 1a. In short, it runs like this:
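Radiometric assay with Δ21 NS5B (H77): 20 μM CTP, 20 μM ATP, 1 μM ^3H-UTP, 5 nM template RNA, 2–4 h at room temperature. RNA precipitated with spermine, filter-captured and counted. IC50 from non-linear fit of retained cpm vs inhibitor concentration (tight-binding equation).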

Test [3] addresses T2, HCV polymerase 1B (Δ21 NS5B, BK) (Hepatitis C virus genotype 1b, UniProt P26663).
T2 construct: 20 to 50 nM Δ21 NS5B
As to the kind of experiment: biochemical. In short, it runs like this: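 Δ21 NS5B (genotype 1b, BK […]) preincubated 15 min RT with inhibitor, 2 mM MnCl2, pH 7.4, 60–125 μM GTP; started with 20 μM CTP/ATP, 1 μM 3H-UTP, 5 nM template RNA, run 2–4 h RT. Spermine-precipitated RNA filter-captured, scintillation counted; IC50 from tight-binding (Morrison) fit.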

Test [4] deals with genotype 1a-H77 subgenomic replicon cell line. Description: microbe, parasite or virus in culture. The class given is cell-based, HCV. To be noted: Hepatitis C virus, read-out: EC50 1a.

T2 sequence (P26663 2420-2989, stated change not applied): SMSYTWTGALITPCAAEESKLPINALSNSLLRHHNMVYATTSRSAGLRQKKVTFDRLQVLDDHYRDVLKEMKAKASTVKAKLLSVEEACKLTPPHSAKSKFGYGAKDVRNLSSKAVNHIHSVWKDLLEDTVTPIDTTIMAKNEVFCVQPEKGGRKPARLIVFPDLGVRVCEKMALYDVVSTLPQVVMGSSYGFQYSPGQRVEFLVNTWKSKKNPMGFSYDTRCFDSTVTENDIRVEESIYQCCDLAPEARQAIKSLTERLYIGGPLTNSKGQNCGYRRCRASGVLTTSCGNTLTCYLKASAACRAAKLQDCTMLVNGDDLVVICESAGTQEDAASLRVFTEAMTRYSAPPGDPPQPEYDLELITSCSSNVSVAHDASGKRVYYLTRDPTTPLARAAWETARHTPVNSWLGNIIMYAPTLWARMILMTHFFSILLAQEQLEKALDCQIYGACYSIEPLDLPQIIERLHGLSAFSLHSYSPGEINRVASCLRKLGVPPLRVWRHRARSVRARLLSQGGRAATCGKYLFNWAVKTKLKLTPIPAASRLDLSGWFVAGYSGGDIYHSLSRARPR
T1 sequence (P27958 2421-2990, stated change not applied): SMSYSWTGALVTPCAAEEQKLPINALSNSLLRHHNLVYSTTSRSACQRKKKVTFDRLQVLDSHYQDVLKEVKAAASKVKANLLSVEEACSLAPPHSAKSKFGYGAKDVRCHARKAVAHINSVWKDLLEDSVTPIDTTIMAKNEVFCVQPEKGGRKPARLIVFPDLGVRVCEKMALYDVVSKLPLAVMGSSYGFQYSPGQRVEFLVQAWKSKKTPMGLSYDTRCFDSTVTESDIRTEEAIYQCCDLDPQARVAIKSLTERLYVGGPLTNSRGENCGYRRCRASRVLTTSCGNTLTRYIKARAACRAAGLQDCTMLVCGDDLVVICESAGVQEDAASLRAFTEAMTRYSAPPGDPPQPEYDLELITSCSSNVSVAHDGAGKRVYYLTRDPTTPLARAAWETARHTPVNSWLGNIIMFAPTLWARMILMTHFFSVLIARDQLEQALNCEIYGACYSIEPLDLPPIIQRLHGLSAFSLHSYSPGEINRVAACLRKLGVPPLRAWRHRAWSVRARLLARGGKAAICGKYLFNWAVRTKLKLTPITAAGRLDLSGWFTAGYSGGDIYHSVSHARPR

What is called EC50 is the concentration that produces a half-maximal response. The IC50 is the concentration that inhibits the measured activity by half. A higher IC50 goes with a need for much substance. Turning to `COc1c(C#Cc2ccc(NS(C)(=O)=O)c(OC(F)(F)F)c2)cc(N2CCC(=O)NC2=O)cc1C(C)(C)C` [IA-L2-1.17, N-(4-((3-tert-butyl-5-(2,4-dioxotetrahydropyrimidin-1(2H)-yl)-2-methoxyphenyl)ethynyl)-2-(trifluoromethoxy)phenyl)methanesulfonamide], the EC50 lay within 10 to 100 nM in test [1] and 100 to 1000 nM in test [4]. Moreover, the IC50 in test [2] and in test [3] was 10 to 100 nM throughout.

Regarding `COc1c(C#Cc2ccc(NS(C)(=O)=O)cc2C(F)(F)F)cc(N2CCC(=O)NC2=O)cc1C(C)(C)C` [IA-L2-1.18, N-(4-((3-tert-butyl-5-(2,4-dioxotetrahydropyrimidin-1(2H)-yl)-2-methoxyphenyl)ethynyl)-3-(trifluoromethyl)phenyl)methanesulfonamide], the figures for the EC50 in test [1] and in test [4] were below 10 nM and 10 to 100 nM, respectively. The IC50 in test [2] and in test [3] was below 10 nM each time.

Regarding `COc1c(C#Cc2ccc(NS(C)(=O)=O)c(C(F)(F)F)c2)cc(N2CCC(=O)NC2=O)cc1C(C)(C)C` [IA-L2-1.19, N-(4-((3-tert-butyl-5-(2,4-dioxotetrahydropyrimidin-1(2H)-yl)-2-methoxyphenyl)ethynyl)-2-(trifluoromethyl)phenyl)methanesulfonamide], the EC50 in test [1] and in test [4] was above 1000 nM in each case. Also, the IC50 is 100 to 1000 nM in test [2] and 10 to 100 nM in test [3].

Consider `COc1c(C#Cc2cc(F)c(NS(C)(=O)=O)cc2C)cc(N2CCC(=O)NC2=O)cc1C(C)(C)C` [IA-L2-1.20, N-(4-((3-tert-butyl-5-(2,4-dioxotetrahydropyrimidin-1(2H)-yl)-2-methoxyphenyl)ethynyl)-2-fluoro-5-methylphenyl)methanesulfonamide], for which the EC50 in test [1] was below 10 nM; in test [4], 10 to 100 nM. Further, the IC50 in test [2] was below 10 nM; in test [3] it was 10 to 100 nM.

As to `COc1c(C#Cc2ccc(NS(C)(=O)=O)c(F)c2Cl)cc(N2CCC(=O)NC2=O)cc1C(C)(C)C` [IA-L2-1.21, N-(4-((3-tert-butyl-5-(2,4-dioxotetrahydropyrimidin-1(2H)-yl)-2-methoxyphenyl)ethynyl)-3-chloro-2-fluorophenyl)methanesulfonamide], the concentration for a half-maximal effect (EC50) in test [1] was below 10 nM; in test [4], 10 to 100 nM. In addition, the results for the IC50 in test [2] and in test [3] were below 10 nM and 10 to 100 nM, respectively.

With `COc1c(C#Cc2cc(F)c(NS(C)(=O)=O)cc2C(F)(F)F)cc(N2CCC(=O)NC2=O)cc1C(C)(C)C` [IA-L2-1.22, N-(4-((3-tert-butyl-5-(2,4-dioxotetrahydropyrimidin-1(2H)-yl)-2-methoxyphenyl)ethynyl)-2-fluoro-5-(trifluoromethyl)phenyl)methanesulfonamide], the EC50 fell in the range of 10 to 100 nM in test [1] and 100 to 1000 nM in test [4]. The 50% inhibitory concentration (IC50) in test [2] and in test [3] was 10 to 100 nM in each case.

As for `COc1c(C#Cc2ccc(NS(C)(=O)=O)cc2)cc(N2CCC(=O)NC2=O)cc1C1CC1` [IA-L2-1.23, N-(4-((3-cyclopropyl-5-(2,4-dioxotetrahydropyrimidin-1(2H)-yl)-2-methoxyphenyl)ethynyl)phenyl)methanesulfonamide], the concentration giving a half-maximal response (EC50) is 100 to 1000 nM in test [1] and above 1000 nM in test [4]. Also, the IC50 in test [2] and in test [3] was 100 to 1000 nM each time.

On to `COc1c(C#Cc2ncc(NS(C)(=O)=O)cc2C)cc(N2CCC(=O)NC2=O)cc1C(C)(C)C` [IA-L2-1.24, N-(6-((3-tert-butyl-5-(2,4-dioxotetrahydropyrimidin-1(2H)-yl)-2-methoxyphenyl)ethynyl)-5-methylpyridin-3-yl)methanesulfonamide], for which the figures for the EC50 in test [1] and in test [4] were 10 to 100 nM and 100 to 1000 nM, respectively. The results for the IC50 in test [2] and in test [3] were below 10 nM and 10 to 100 nM, respectively.

For `COc1c(C#Cc2ccc(NS(C)(=O)=O)cn2)cc(N2CCC(=O)NC2=O)cc1C(C)(C)C` [IA-L2-1.25, N-(6-((3-tert-butyl-5-(2,4-dioxotetrahydropyrimidin-1(2H)-yl)-2-methoxyphenyl)ethynyl)pyridin-3-yl)methanesulfonamide], the concentration giving a half-maximal response (EC50) lay within 10 to 100 nM in test [1] and 100 to 1000 nM in test [4]. Moreover, the figures for the IC50 in test [2] and in test [3] were below 10 nM and 10 to 100 nM, respectively.

For the molecule `COc1c(C#Cc2ccc(NS(C)(=O)=O)nc2)cc(N2CCC(=O)NC2=O)cc1C(C)(C)C` [IA-L2-1.26, N-(5-((3-tert-butyl-5-(2,4-dioxotetrahydropyrimidin-1(2H)-yl)-2-methoxyphenyl)ethynyl)-pyridin-2-yl)methanesulfonamide 2,2,2-trifluoroacetate], the EC50 in test [1] and in test [4] was 10 to 100 nM throughout. The half-inhibitory concentration (IC50) in test [2] and in test [3] was 10 to 100 nM in each case.

As to `COc1c(C#Cc2ccc(NS(C)(=O)=O)c3ccccc23)cc(N2CCC(=O)NC2=O)cc1C(C)(C)C` [IA-L2-2.1, N-(4-((3-tert-butyl-5-(2,4-dioxotetrahydropyrimidin-1(2H)-yl)-2-methoxyphenyl)ethynyl)-naphthalen-1-yl)methanesulfonamide], the EC50 in test [1] and in test [4] was 100 to 1000 nM throughout. The IC50 in test [2] and in test [3] was 10 to 100 nM throughout.

Regarding `CN(C(=O)c1cc(N2CCC(=O)NC2=O)cc(C(C)(C)C)c1O)c1ccc(NS(C)(=O)=O)cc1` [IA-L3-1.2, 3-tert-butyl-5-(2,4-dioxotetrahydropyrimidin-1(2H)-yl)-2-hydroxy-N-methyl-N-(4-(methyl-sulfonamido)phenyl)benzamide], the EC50 in test [1] and in test [4] was above 1000 nM each time. The figures for the IC50 in test [2] and in test [3] were above 1000 nM and 10 to 100 nM, respectively.

With `CC(C)(C)c1cc(N2CCC(=O)NC2=O)cc(C(=O)Nc2ccccc2)c1O` [IA-L3-1.3, 3-tert-butyl-5-(2,4-dioxotetrahydropyrimidin-1(2H)-yl)-2-hydroxy-N-phenylbenzamide], the EC50 in test [1] and in test [4] was above 1000 nM throughout. Besides, the IC50 in test [2] is above 1000 nM; in test [3], 100 to 1000 nM.

Consider `CN(c1ccc(NC(=O)c2cc(N3CCC(=O)NC3=O)cc(C(C)(C)C)c2O)cc1)S(C)(=O)=O` [IA-L3-1.4, 3-tert-butyl-5-(2,4-dioxotetrahydropyrimidin-1(2H)-yl)-2-hydroxy-N-(4-(N-methylmethylsulfonamido)phenyl)benzamide], for which the EC50 in test [1] and in test [4] was above 1000 nM each time. Further, the IC50 lay within 100 to 1000 nM in test [2] and 10 to 100 nM in test [3].

As to `CC(C)(C)c1cc(N2CCC(=O)NC2=O)cc(C(=O)Nc2cccc(NS(C)(=O)=O)c2)c1O` [IA-L3-1.5, 3-tert-butyl-5-(2,4-dioxotetrahydropyrimidin-1(2H)-yl)-2-hydroxy-N-(3-(methylsulfonamido)phenyl)benzamide], the EC50 in test [1] and in test [4] was above 1000 nM in each case. The IC50 fell in the range of 100 to 1000 nM in test [2] and 10 to 100 nM in test [3].

For the molecule `CC(C)(C)c1cc(N2CCC(=O)NC2=O)cc(C(=O)Nc2ccc(NS(C)(=O)=O)cc2)c1O` [IA-L3-1.6, 3-tert-butyl-5-(2,4-dioxotetrahydropyrimidin-1(2H)-yl)-2-hydroxy-N-(4-(methylsulfonamido)phenyl)benzamide], the EC50 was 10 to 100 nM in test [1] and 100 to 1000 nM in test [4]. The IC50 in test [2] is 10 to 100 nM; in test [3], below 10 nM.
